Results reported in ChEMBL document CHEMBL1201862, “PubChem BioAssay data set” (2004).
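1) Cells in 96-well plates. 2) Compound, 48 h, 5 concentrations. 3) Linear interpolation between surrounding doses. 4) Unreached endpoint = highest concentration. Here, GI50 denotes the concentration required for 50% inhibition of growth.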 Activity calls are given as the source filed them. Cut-off read from the data, not from the text of the source: active = GI50 up to about 1.1 µM and inactive = higher.

Legend:
Test in all cases: NCI tumour cell line growth inhibition, 48 h
[1] = tested on: NCI-H522
[2] = tested on: SK-MEL-2
[3] = tested on: HOP-62
[4] = tested on: NCI/ADR-RES
[5] = tested on: OVCAR-5
[6] = tested on: OVCAR-8
[7] = tested on: SNB-19
[8] = tested on: SF-268
[9] = tested on: SN12C
[10] = tested on: OVCAR-3
[11] = tested on: IGROV-1
[12] = tested on: HCT-15
[13] = tested on: M14
[14] = tested on: HT-29
[15] = tested on: MDA-MB-435
[16] = tested on: A498
[17] = tested on: SK-MEL-28
[18] = tested on: ACHN
[19] = tested on: HCT-116
[20] = tested on: LOX IMVI

| SMILES | GI50 [1] | GI50 [2] | GI50 [3] | GI50 [4] | GI50 [5] | GI50 [6] | GI50 [7] | GI50 [8] | GI50 [9] | GI50 [10] | GI50 [11] | GI50 [12] [µM] | GI50 [13] | GI50 [14] | GI50 [15] | GI50 [16] | GI50 [17] | GI50 [18] | GI50 [19] | GI50 [20] |
| --- | --- | --- | --- | --- | --- | --- | --- | --- | --- | --- | --- | --- | --- | --- | --- | --- | --- | --- | --- | --- |
| COc1cc(/C=C(\C#N)c2nc3ccccc3o2)ccc1O | 13.3 µM (inactive) | 18 µM (inactive) | 21 µM (inactive) | 24.1 µM (inactive) | 22 µM (inactive) | 21.6 µM (inactive) | 32.4 µM (inactive) | 19.9 µM (inactive) | 34.7 µM (inactive) | 14 µM (inactive) | 17.2 µM (inactive) | 16.4 | 13.6 µM (inactive) | 22.3 µM (inactive) | 16.4 µM (inactive) | 16.3 µM (inactive) | 17.7 µM (inactive) | 19 µM (inactive) | 16.5 µM (inactive) | – |
| COC(=O)C1C(C(=O)OC)N(Cc2ccccc2)C(=O)N1Cc1ccccc1 (centres undefined) | 37.5 µM (inactive) | > 100 µM (inactive) | > 100 µM (inactive) | > 100 µM (inactive) | > 100 µM (inactive) | > 100 µM (inactive) | > 100 µM (inactive) | > 100 µM (inactive) | > 100 µM (inactive) | 61.8 µM (inactive) | 85.7 µM (inactive) | – | > 100 µM (inactive) | > 100 µM (inactive) | > 100 µM (inactive) | – | > 100 µM (inactive) | > 100 µM (inactive) | > 100 µM (inactive) | > 100 µM (inactive) |
| N#Cc1c(N)sc2c1-c1ccccc1OC2 | – | 38.5 µM (inactive) | 46.3 µM (inactive) | 32.2 µM (inactive) | 31.6 µM (inactive) | – | 30.5 µM (inactive) | 37.1 µM (inactive) | 19.7 µM (inactive) | 22.3 µM (inactive) | 49.7 µM (inactive) | 26.7 | 56.5 µM (inactive) | 26.2 µM (inactive) | 32.5 µM (inactive) | 29.3 µM (inactive) | 44.2 µM (inactive) | 32.2 µM (inactive) | 27.3 µM (inactive) | 38.1 µM (inactive) |
| CN1C(C)(C)CC(=O)C(Br)C1(C)C (centres undefined) | > 100 µM (inactive) | > 100 µM (inactive) | > 100 µM (inactive) | > 100 µM (inactive) | > 100 µM (inactive) | > 100 µM (inactive) | > 100 µM (inactive) | > 100 µM (inactive) | > 100 µM (inactive) | > 100 µM (inactive) | > 100 µM (inactive) | > 100 | > 100 µM (inactive) | > 100 µM (inactive) | > 100 µM (inactive) | – | > 100 µM (inactive) | > 100 µM (inactive) | > 10 µM (inactive) | > 100 µM (inactive) |
| Cc1nc2ccccc2n1Cc1nnc2n1N=C(c1ccccc1)CS2 | 22.1 µM (inactive) | 17 µM (inactive) | 47.3 µM (inactive) | 64.1 µM (inactive) | 53.3 µM (inactive) | – | 32.1 µM (inactive) | 40.9 µM (inactive) | 36.6 µM (inactive) | 35.2 µM (inactive) | 2.4 µM (inactive) | 54.8 | 32.8 µM (inactive) | 30.5 µM (inactive) | 32.7 µM (inactive) | 43.8 µM (inactive) | 50.1 µM (inactive) | 47.6 µM (inactive) | 27.7 µM (inactive) | – |
| COc1c(C(=O)/C(=N/Nc2cccc(Cl)c2)C(C)=O)c(O)c(OC)c2occc12 | > 100 µM (inactive) | > 100 µM (inactive) | > 100 µM (inactive) | > 100 µM (inactive) | > 100 µM (inactive) | 60.4 µM (inactive) | > 100 µM (inactive) | 87.3 µM (inactive) | 61.2 µM (inactive) | > 100 µM (inactive) | > 100 µM (inactive) | > 100 | > 100 µM (inactive) | 95.1 µM (inactive) | > 100 µM (inactive) | – | > 100 µM (inactive) | 70 µM (inactive) | > 100 µM (inactive) | 56.4 µM (inactive) |
| COc1cc2c(cc1OC)C1C(O)C(OC)C(Br)C3(Br)CCN(C2)C13 (centres undefined) | 50.8 µM (inactive) | > 100 µM (inactive) | > 100 µM (inactive) | > 100 µM (inactive) | > 100 µM (inactive) | 41.3 µM (inactive) | 46.2 µM (inactive) | 9.04 µM (inactive) | > 100 µM (inactive) | > 100 µM (inactive) | > 100 µM (inactive) | > 100 | > 100 µM (inactive) | > 100 µM (inactive) | > 100 µM (inactive) | > 100 µM (inactive) | > 100 µM (inactive) | > 100 µM (inactive) | > 100 µM (inactive) | – |
| CC(C)CC(C(N)=O)C(=O)NC(Cc1ccccc1)NC(=O)CNC(=O)C(C)NC(=O)C(N)Cc1ccc(O)cc1 (centres undefined) | > 100 µM (inactive) | > 100 µM (inactive) | > 100 µM (inactive) | > 100 µM (inactive) | > 100 µM (inactive) | > 100 µM (inactive) | > 100 µM (inactive) | > 100 µM (inactive) | > 100 µM (inactive) | > 100 µM (inactive) | > 100 µM (inactive) | > 100 | > 100 µM (inactive) | > 100 µM (inactive) | > 100 µM (inactive) | – | > 100 µM (inactive) | > 100 µM (inactive) | > 100 µM (inactive) | > 100 µM (inactive) |
| O=C1CCc2ccc3c(c21)CC1(Cc2ccccc2C1)C3 | 10.2 µM (inactive) | 14.2 µM (inactive) | 6.37 µM (inactive) | 5.5 µM (inactive) | 11.3 µM (inactive) | 7.62 µM (inactive) | 23.1 µM (inactive) | 12.7 µM (inactive) | 4.8 µM (inactive) | 4.01 µM (inactive) | 13.3 µM (inactive) | 4.67 | 4.73 µM (inactive) | 3.71 µM (inactive) | 5.98 µM (inactive) | – | 4.37 µM (inactive) | 5.27 µM (inactive) | 3.98 µM (inactive) | 2.59 µM (inactive) |
| CCOC(=O)C1C(=O)C=C(c2cc(C)ccc2O)CC1c1cccc(Cl)c1 (centres undefined) | 12.4 µM (inactive) | 16.7 µM (inactive) | 40.2 µM (inactive) | 17.5 µM (inactive) | 43.7 µM (inactive) | 29.3 µM (inactive) | 19.6 µM (inactive) | 22.3 µM (inactive) | 27.7 µM (inactive) | 32 µM (inactive) | 13.6 µM (inactive) | 3.13 | 30.1 µM (inactive) | 32 µM (inactive) | 2.78 µM (inactive) | – | – | 19.7 µM (inactive) | 34 µM (inactive) | 24.2 µM (inactive) |
| NC(CCCCCP(=O)(O)O)C(=O)O (centres undefined) [AP-7] | > 100 µM (inactive) | > 100 µM (inactive) | – | > 100 µM (inactive) | > 100 µM (inactive) | > 100 µM (inactive) | > 100 µM (inactive) | > 100 µM (inactive) | > 100 µM (inactive) | > 100 µM (inactive) | > 100 µM (inactive) | > 100 | > 100 µM (inactive) | > 100 µM (inactive) | > 100 µM (inactive) | – | > 100 µM (inactive) | > 100 µM (inactive) | > 100 µM (inactive) | > 100 µM (inactive) |
